Laboratory results as given in patent US20250215012A1, “IKZF2 DEGRADERS AND USES THEREOF” (REGENTS OF THE UNIVERSITY OF MICHIGAN, priority 2022, published 2025).

Target: IKZF2 (Homo sapiens (Human), UniProt Q96SW2+Q9UKS7)
Experiment: IKZF2 HiBiT Assay (Jurkat-IKZF2-HiBiT cell line)
Format: cell-based
Settings: Jurkat-IKZF2-HiBiT cells, 24 hours; for DC50: read-out: HiBit assay degradation analysis DC50; for Dmax: read-out: HiBit assay degradation analysis Dmax
Experimental: Degradation of IKZF2 protein is determined by IKZF2 HiBiT assay using the Jurkat-IKZF2-HiBiT (Promega) cell line. Briefly, cells are seeded in culture medium. Compounds are serially diluted in culture medium, and certain volume of the diluted compounds is added to the appropriate well of the plate. After the addition of compounds, the cells are incubated. At the end of treatment, Nano-Glo HiBiT Lytic Detection Reagent (Promega) is added to each well, and then the plates are incubated at room temperature for a certain time period. The luminescent signal is measured using a CALRIOstar plate reader (BMG Labtech). The readings are normalized to the DMSO-treated cells and the IC50 is calculated by nonlinear regression (four parameters sigmoid fitted with variable slope, least squares fit, and no constraint) analysis using the GraphPad Prism 8 software.
Degradation of IKZF2 protein was determined by IKZF2 HiBiT assay using the Jurkat-IKZF2-HiBiT (Promega) cell line. […] Compounds were serially diluted in culture medium, and 20 μl of the diluted compounds were added to the appropriate wells of the plate. After the addition of compounds, the cells were incubated at 37° C. in an atmosphere of 5% CO2 for 24 hours. At the end of treatment, 40 ul of Nano-Glo HiBiT Lytic Detection Reagent (Promega) was added to each well, and then the plates were incubated at room temperature for 10-20 minutes. The luminescent signal was measured using a CALRIOstar plate reader (BMG Labtech). The readings were normalized to the DMSO-treated cells and the IC50 was calculated by nonlinear regression (four parameters sigmoid fitted with variable slope, least squares fit, and no constraint) analysis using the GraphPad Prism 8 software.

Sequence of IKZF2 (Q9UKS7 whole entry): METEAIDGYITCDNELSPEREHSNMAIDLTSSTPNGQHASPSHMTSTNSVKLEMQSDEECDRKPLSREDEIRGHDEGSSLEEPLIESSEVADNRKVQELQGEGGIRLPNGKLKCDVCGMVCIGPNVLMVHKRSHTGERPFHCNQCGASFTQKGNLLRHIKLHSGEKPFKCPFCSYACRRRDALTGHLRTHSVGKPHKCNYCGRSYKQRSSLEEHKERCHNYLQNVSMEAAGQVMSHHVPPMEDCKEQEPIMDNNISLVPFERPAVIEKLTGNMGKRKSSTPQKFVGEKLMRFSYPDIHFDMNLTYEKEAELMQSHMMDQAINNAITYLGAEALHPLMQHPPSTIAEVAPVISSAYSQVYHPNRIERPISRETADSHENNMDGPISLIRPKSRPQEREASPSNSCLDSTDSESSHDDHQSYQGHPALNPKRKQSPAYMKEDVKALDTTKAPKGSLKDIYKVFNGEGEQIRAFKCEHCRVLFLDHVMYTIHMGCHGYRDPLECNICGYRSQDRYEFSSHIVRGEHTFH
Sequence of IKZF2 (Q96SW2 whole entry): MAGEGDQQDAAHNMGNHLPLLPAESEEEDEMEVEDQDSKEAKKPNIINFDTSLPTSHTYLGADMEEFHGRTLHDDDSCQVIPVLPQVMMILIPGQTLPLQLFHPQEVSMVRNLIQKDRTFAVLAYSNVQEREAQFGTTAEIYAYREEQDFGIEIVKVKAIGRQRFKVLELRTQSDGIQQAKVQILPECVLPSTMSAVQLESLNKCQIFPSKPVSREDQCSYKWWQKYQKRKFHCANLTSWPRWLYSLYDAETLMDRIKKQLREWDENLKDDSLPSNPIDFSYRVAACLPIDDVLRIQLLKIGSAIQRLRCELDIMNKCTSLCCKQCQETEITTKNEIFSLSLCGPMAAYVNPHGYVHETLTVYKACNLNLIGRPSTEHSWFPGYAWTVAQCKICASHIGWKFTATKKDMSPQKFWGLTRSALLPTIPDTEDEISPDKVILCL
Sequence of IKZF2 (Q16531 whole entry partner): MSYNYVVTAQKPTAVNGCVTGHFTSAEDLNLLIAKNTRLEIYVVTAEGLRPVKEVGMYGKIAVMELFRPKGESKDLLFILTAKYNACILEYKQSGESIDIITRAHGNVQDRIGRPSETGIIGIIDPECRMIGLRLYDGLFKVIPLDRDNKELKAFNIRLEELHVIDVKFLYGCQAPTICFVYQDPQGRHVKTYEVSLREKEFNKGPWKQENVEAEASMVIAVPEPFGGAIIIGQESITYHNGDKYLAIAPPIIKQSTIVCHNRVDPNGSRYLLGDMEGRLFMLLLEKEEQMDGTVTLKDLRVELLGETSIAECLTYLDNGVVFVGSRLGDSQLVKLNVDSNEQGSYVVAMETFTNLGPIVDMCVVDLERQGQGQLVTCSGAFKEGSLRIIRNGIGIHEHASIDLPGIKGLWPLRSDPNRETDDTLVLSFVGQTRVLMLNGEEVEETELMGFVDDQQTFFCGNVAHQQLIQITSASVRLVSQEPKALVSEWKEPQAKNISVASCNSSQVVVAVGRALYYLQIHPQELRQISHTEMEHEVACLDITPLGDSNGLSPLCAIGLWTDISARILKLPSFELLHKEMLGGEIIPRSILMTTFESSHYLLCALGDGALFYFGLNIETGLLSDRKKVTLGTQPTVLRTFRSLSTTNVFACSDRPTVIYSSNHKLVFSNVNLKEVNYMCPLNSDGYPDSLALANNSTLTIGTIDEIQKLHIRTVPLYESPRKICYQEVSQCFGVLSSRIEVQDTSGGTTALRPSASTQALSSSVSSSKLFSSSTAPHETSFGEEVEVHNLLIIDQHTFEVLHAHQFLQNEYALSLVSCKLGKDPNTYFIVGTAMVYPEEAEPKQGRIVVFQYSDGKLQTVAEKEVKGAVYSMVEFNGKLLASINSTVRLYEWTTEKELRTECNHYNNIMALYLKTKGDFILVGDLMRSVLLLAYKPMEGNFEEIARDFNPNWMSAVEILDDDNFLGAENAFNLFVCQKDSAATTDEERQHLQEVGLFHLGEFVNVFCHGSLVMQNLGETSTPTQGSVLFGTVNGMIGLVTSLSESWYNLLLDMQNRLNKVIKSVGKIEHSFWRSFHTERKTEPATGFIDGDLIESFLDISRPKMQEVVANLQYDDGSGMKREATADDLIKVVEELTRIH

SMILES | DC50 [nM] | Dmax [%]
Cn1ccc2cccc(CN3CCC4(CC3)COc3c4ccc4c3CN(C3CCC(=O)NC3=O)C4=O)c21 (centres unmarked) [Compound A74, 3-(1′-((1-methyl-1H-indol-7-yl)methyl)-6-oxo-6,8-dihydro-2H,7H-spiro[furo[2,3-e]isoindole-3,4′-piperidin]-7-yl)piperidine-2,6-dione] | 50 to 200 | 60 to 80
O=C1CCC(N2Cc3c(ccc4c3OCC43CCN(Cc4cccc5c4OCCO5)CC3)C2=O)C(=O)N1 (centres unmarked) [Compound A199, 3-(1′-((2,3-dihydrobenzo[b][1,4]dioxin-5-yl)methyl)-6-oxo-6,8-dihydro-2H,7H-spiro[furo[2,3-e]isoindole-3,4′-piperidin]-7-yl)piperidine-2,6-dione] | > 500 | 60 to 80
O=C1CCC(N2Cc3c(ccc4c3OCC43CCN(Cc4cccc5c4NC(=O)C5)CC3)C2=O)C(=O)N1 (centres unmarked) [Compound A152, 3-(6-oxo-1′-((2-oxoindolin-7-yl)methyl)-6,8-dihydro-2H,7H-spiro[furo[2,3-e]isoindole-3,4′-piperidin]-7-yl)piperidine-2,6-dione] | 50 to 200 | 60 to 80
O=C1CCC(N2Cc3c(ccc4c3OCC43CCN(Cc4ccc5cnccc5c4)CC3)C2=O)C(=O)N1 (centres unmarked) [Compound A65, 3-(1′-(isoquinolin-6-ylmethyl)-6-oxo-6,8-dihydro-2H,7H-spiro[furo[2,3-e]isoindole-3,4′-piperidin]-7-yl)piperidine-2,6-dione] | > 500 | 40 to 60
Cn1cc2cc(CN3CCC4(CC3)COc3c4ccc4c3CN(C3CCC(=O)NC3=O)C4=O)ccc2n1 (centres unmarked) [Compound A68, 3-(1′-((2-methyl-2H-indazol-5-yl)methyl)-6-oxo-6,8-dihydro-2H,7H-spiro[furo[2,3-e]isoindole-3,4′-piperidin]-7-yl)piperidine-2,6-dione] | > 500 | 40 to 60
Cn1cc(CN2CCC3(CC2)COc2c3ccc3c2CN(C2CCC(=O)NC2=O)C3=O)cn1 (centres unmarked) [Compound A228, 3-(1′-((1-methyl-1H-pyrazol-4-yl)methyl)-6-oxo-6,8-dihydro-2H,7H-spiro[furo[2,3-e]isoindole-3,4′-piperidin]-7-yl)piperidine-2,6-dione] | > 500 | < 40
O=C1CCC(N2Cc3c(ccc4c3OCC43CCN(Cc4cccc5c4OCO5)CC3)C2=O)C(=O)N1 (centres unmarked) [Compound A225, 3-(1′-(benzo[d][1,3]dioxol-4-ylmethyl)-6-oxo-6,8-dihydro-2H,7H-spiro[furo[2,3-e]isoindole-3,4′-piperidin]-7-yl)piperidine-2,6-dione] | > 500 | 40 to 60
O=C1CCC(N2Cc3c(ccc4c3OCCC43CCN(Cc4ccc(Cl)cc4F)CC3)C2=O)C(=O)N1 (centres unmarked) [Compound A10, 3-(1-(4-chloro-2-fluorobenzyl)-7′-oxo-2′,3′,7′,9′-tetrahydro-8′H-spiro[piperidine-4,4′-pyrano[2,3-e]isoindol]-8′-yl)piperidine-2,6-dione] | > 500 | < 40
O=C1CCC(N2Cc3c(ccc4c3OCC43CCN(Cc4ccn(-c5ccccc5F)n4)CC3)C2=O)C(=O)N1 (centres unmarked) [Compound A323, 3-(1′-((1-(2-fluorophenyl)-1H-pyrazol-3-yl)methyl)-6-oxo-6,8-dihydro-2H,7H-spiro[furo[2,3-e]isoindole-3,4′-piperidin]-7-yl)piperidine-2,6-dione] | > 500 | < 40
Cn1cnc2ccc(CN3CCC4(CC3)COc3c4ccc4c3CN(C3CCC(=O)NC3=O)C4=O)cc21 (centres unmarked) [Compound A72, 3-(1′-((1-methyl-1H-benzo[d]imidazol-6-yl)methyl)-6-oxo-6,8-dihydro-2H,7H-spiro[furo[2,3-e]isoindole-3,4′-piperidin]-7-yl)piperidine-2,6-dione] | > 500 | 40 to 60
O=C1CCC(N2Cc3c(ccc4c3OCC43CCN(Cc4cccc5nccnc45)CC3)C2=O)C(=O)N1 (centres unmarked) [Compound A47, 3-(6-oxo-1′-(quinoxalin-5-ylmethyl)-6,8-dihydro-2H,7H-spiro[furo[2,3-e]isoindole-3,4′-piperidin]-7-yl)piperidine-2,6-dione] | > 500 | 40 to 60
Cn1cc(CN2CCC3(CC2)COc2c3ccc3c2CN(C2CCC(=O)NC2=O)C3=O)c(-c2ccccc2)n1 (centres unmarked) [Compound A256, 3-(1′-((1-methyl-3-phenyl-1H-pyrazol-4-yl)methyl)-6-oxo-6,8-dihydro-2H,7H-spiro[furo[2,3-e]isoindole-3,4′-piperidin]-7-yl)piperidine-2,6-dione] | > 500 | < 40
CC(C)(c1ccccc1)n1cc(CN2CCC3(CC2)COc2c3ccc3c2CN([C@H]2CCC(=O)NC2=O)C3=O)cn1 [Compound A346, (S)-3-(6-oxo-1′-((1-(2-phenylpropan-2-yl)-1H-pyrazol-4-yl)methyl)-6,8-dihydro-2H,7H-spiro[furo[2,3-e]isoindole-3,4′-piperidin]-7-yl)piperidine-2,6-dione] | < 50 | 60 to 80
O=C1CCC(N2Cc3c(ccc4c3OCC43CCN(Cc4cncc(Cl)c4)CC3)C2=O)C(=O)N1 (centres unmarked) [Compound A248, 3-(1′-((5-chloropyridin-3-yl)methyl)-6-oxo-6,8-dihydro-2H,7H-spiro[furo[2,3-e]isoindole-3,4′-piperidin]-7-yl)piperidine-2,6-dione] | > 500 | < 40
CS(=O)(=O)c1ccccc1CN1CCC2(CC1)COc1c2ccc2c1CN(C1CCC(=O)NC1=O)C2=O (centres unmarked) [Compound A234, 3-(1′-(2-(methylsulfonyl)benzyl)-6-oxo-6,8-dihydro-2H,7H-spiro[furo[2,3-e]isoindole-3,4′-piperidin]-7-yl)piperidine-2,6-dione] | > 500 | < 40
O=C1CCC(N2Cc3c(ccc4c3OCC43CCN(Cc4ccc5ccn(Cc6cccnc6)c5c4)CC3)C2=O)C(=O)N1 (centres unmarked) [Compound A154, 3-(6-oxo-1′-((1-(pyridin-3-ylmethyl)-1H-indol-6-yl)methyl)-6,8-dihydro-2H,7H-spiro[furo[2,3-e]isoindole-3,4′-piperidin]-7-yl)piperidine-2,6-dione] | 200 to 500 | 60 to 80
O=C1CCC(N2Cc3c(ccc4c3OCC43CCN(Cc4cccc(Br)c4)CC3)C2=O)C(=O)N1 (centres unmarked) [Compound A91, 3-(1′-(3-bromobenzyl)-6-oxo-6,8-dihydro-2H,7H-spiro[furo[2,3-e]isoindole-3,4′-piperidin]-7-yl)piperidine-2,6-dione] | < 50 | 60 to 80
O=C1CCC(N2Cc3c(ccc4c3OCC43CCN(C[C@H]4C[C@H](Oc5ccc(F)cc5)C4)CC3)C2=O)C(=O)N1 (some centres unmarked) [Compound A356, 3-(1′-(((1r,3r)-3-(4-fluorophenoxy)cyclobutyl)methyl)-6-oxo-6,8-dihydro-2H,7H-spiro[furo[2,3-e]isoindole-3,4′-piperidin]-7-yl)piperidine-2,6-dione] | > 500 | 
O=C1CCC(N2Cc3c(ccc4c3OCC43CCN(Cc4cnn5c4CCC5)CC3)C2=O)C(=O)N1 (centres unmarked) [Compound A244, 3-(1′-((5,6-dihydro-4H-pyrrolo[1,2-b]pyrazol-3-yl)methyl)-6-oxo-6,8-dihydro-2H,7H-spiro[furo[2,3-e]isoindole-3,4′-piperidin]-7-yl)piperidine-2,6-dione] | 200 to 500 | 60 to 80
O=C1CCC(N2Cc3c(ccc4c3OCC43CCN(Cc4cnn(-c5cccc(F)c5)c4)CC3)C2=O)C(=O)N1 (centres unmarked) [Compound A311, 3-(1′-((1-(3-fluorophenyl)-1H-pyrazol-4-yl)methyl)-6-oxo-6,8-dihydro-2H,7H-spiro[furo[2,3-e]isoindole-3,4′-piperidin]-7-yl)piperidine-2,6-dione] | > 500 | 40 to 60
Cc1ccc2[nH]ncc2c1CN1CCC2(CC1)COc1c2ccc2c1CN(C1CCC(=O)NC1=O)C2=O (centres unmarked) [Compound A143, 3-(1′-((5-methyl-1H-indazol-4-yl)methyl)-6-oxo-6,8-dihydro-2H,7H-spiro[furo[2,3-e]isoindole-3,4′-piperidin]-7-yl)piperidine-2,6-dione] | < 50 | 60 to 80
O=C1CCC(N2Cc3c(ccc4c3OCC43CCN(Cc4ccc(F)cc4)CC3)C2=O)C(=O)N1 (centres unmarked) [Compound A192, 3-(1′-(4-fluorobenzyl)-6-oxo-6,8-dihydro-2H,7H-spiro[furo[2,3-e]isoindole-3,4′-piperidin]-7-yl)piperidine-2,6-dione] | > 500 | 40 to 60
O=C1CCC(N2Cc3c(ccc4c3OCC43CCN(Cc4cnn(CC(F)(F)F)c4)CC3)C2=O)C(=O)N1 (centres unmarked) [Compound A232, 3-(6-oxo-1′-((1-(2,2,2-trifluoroethyl)-1H-pyrazol-4-yl)methyl)-6,8-dihydro-2H,7H-spiro[furo[2,3-e]isoindole-3,4′-piperidin]-7-yl)piperidine-2,6-dione] | > 500 | 40 to 60
O=C1CCC(N2Cc3c(ccc4c3OCC43CCN(Cc4ccn5nccc5c4)CC3)C2=O)C(=O)N1 (centres unmarked) [Compound A80, 3-(6-oxo-1′-(pyrazolo[1,5-a]pyridin-5-ylmethyl)-6,8-dihydro-2H,7H-spiro[furo[2,3-e]isoindole-3,4′-piperidin]-7-yl)piperidine-2,6-dione] | > 500 | < 40
